The values that follow come from patent US11168067B2, “Substituted quinazoline compound having blood-brain barrier penetration capability” (WEISHANG (SHANGHAI) BIO-PHARMACEUTICAL CO., LTD., priority 2016, dated 2021).

Data set [1] is described as follows: Blood-brain barrier penetration (brain tissue to plasma concentration ratio). Type of data set: in vivo. The note with it: rat, rats, four hours after dosing. Here is the method: To determine whether the compound was able to cross the blood-brain barrier (BBB), the rats were administered with the test compound. Four hours after dosing, rats were sacrificed, blood and brain tissue were collected and the concentration of the test compound was analyzed. Brain permeation is defined as the ratio of the concentration of the compound in the brain tissue to the concentration in the plasma. P-glycoprotein is the blood-brain barrier efflux protein, […].

For data set [2], the system named is PC-9 tumor cell. Nature of the data set: CellTiter-Glo (CTG) cell viability assay, PC-9 tumor cell growth inhibition. To be noted: for IC50: Homo sapiens, PC-9, 72 h, read-out: PC-9 tumor cell growth inhibition IC50; for inhibiting PC-9 tumor cell growth compared with Iressa: PC-9 cells, cell viability assay.
Description: Cell viability of tumor cells with EGFR-activated mutations (exon 19-deficient Exon 19 Del) protein was detected using CellTiter-Glo (CTG) assay; about 5000 cells were seeded in each blank 96-well plate, 16 hours later, add the proportionally diluted compound, equilibrated at room temperature for 72 hours after the addition of the drug for 30 minutes. 100 μl of CellTiter-Glo reagent was added to each well and the orbital shaker was mixed for 2 minutes to induce cell lysis. The plate was incubated at room temperature for 10 minutes to stabilize the luminescence signal. The TECAN Infinite M1000 Pro instrument records the luminescence signal.

The structures appear in SMILES notation.

For `COc1cc2ncnc(Nc3cccc(Cl)c3F)c2cc1OC1CCN(C2COC2)CC1(F)F` (racemic) [Compound 1, (R/S)—N-(3-chloro-2-fluorophenyl)-6-((3,3-difluoro-1-(oxetan-3-yl)piperidin-4-yl)oxy)-7-methoxyquinazolin-4-amine], in data set [1], the Kp at 4 h is over 0.3. Besides, in data set [2], the IC50 is under 1 nM and the “inhibiting PC-9 tumor cell growth compared with Iressa” value is reported as “more effective than Iressa”.
`C#Cc1cccc(Nc2ncnc3cc(OC)c(OC4CCN(C5COC5)CC4(F)F)cc23)c1F` (racemic) [Compound 2, (R/S)-6-((3,3-difluoro-1-(oxetan-3-yl)piperidin-4-yl)oxy)-N-(3-ethynyl-2-fluorophenyl)-7-methoxyquinazolin-4-amine]: the Kp at 4 h in data set [1] is over 0.3.
Consider `[2H]C([2H])([2H])Oc1cc2ncnc(Nc3cccc(Cl)c3F)c2cc1OC1CCN(C2COC2)CC1(F)F` (racemic) [Compound 3, (R/S)—N-(3-chloro-2-fluorophenyl)-6-((3,3-difluoro-1-(oxetan-3-yl)piperidin-4-yl)oxy)-7-(methoxy-d3)quinazolin-4-amine], for which the Kp at 4 h in data set [1] is over 0.3. The IC50 in data set [2] was under 1 nM.
For the compound `[2H]C([2H])([2H])Oc1cc2ncnc(Nc3cccc(C#C)c3F)c2cc1OC1CCN(C2COC2)CC1(F)F` (racemic) [Compound 4, (R/S)-6-((3,3-difluoro-1-(oxetan-3-yl)piperidin-4-yl)oxy)-N-(3-ethynyl-2-fluorophenyl)-7-(methoxy-d3)quinazolin-4-amine], in data set [1], the Kp at 4 h was over 0.3.
The same measure, in the same setting: the value for `C#Cc1c(F)ccc(Nc2ncnc3cc(OC)c(OC4CCN(C)CC4(F)F)cc23)c1F` (racemic) [Compound 5, (R/S)-6-((3,3-difluoro-1-methylpiperidin-4-yl)oxy)-N-(3-ethynyl-2,4-difluorophenyl)-7-methoxyquinazolin-4-amine] was over 0.3; that for `C#Cc1cccc(Nc2ncnc3cc(OC)c(OC4CCN(C)CC4(F)F)cc23)c1F` (racemic) [Compound 6, (R/S)-6-((3,3-difluoro-1-methylpiperidin-4-yl)oxy)-N-(3-ethynyl-2-fluorophenyl)-7-methoxyquinazolin-4-amine] was over 0.3.
With `COc1cc2ncnc(Nc3ccc(F)c(Cl)c3F)c2cc1OC1CCN(C2COC2)CC1(F)F` (racemic) [Compound 7, (R/S)—N-(3-chloro-2,4-difluorophenyl)-6-((3,3-difluoro-1-(oxetan-3-yl)piperidin-4-yl)oxy)-7-methoxyquinazolin-4-amine], the Kp at 4 h in data set [1] is over 0.3. In data set [2], the IC50 is under 1 nM and the “inhibiting PC-9 tumor cell growth compared with Iressa” value is listed as “more effective than Iressa”.
For `C#Cc1c(F)ccc(Nc2ncnc3cc(OC)c(OC4CCN(C5COC5)CC4(F)F)cc23)c1F` (racemic) [Compound 8, (R/S)-6-((3,3-difluoro-1-(oxetan-3-yl)piperidin-4-yl)oxy)-N-(3-ethynyl-2,4-difluorophenyl)-7-methoxyquinazolin-4-amine], in data set [1], the concentration ratio (Kp) at 4 h is over 0.3.
Same read-out and setting: in the case of `[2H]C([2H])([2H])Oc1cc2ncnc(Nc3ccc(F)c(C#C)c3F)c2cc1OC1CCN(C2COC2)CC1(F)F` (racemic) [Compound 10, (R/S)-6-((3,3-difluoro-1-(oxetan-3-yl)piperidin-4-yl)oxy)-N-(3-ethynyl-2,4-difluorophenyl)-7-(methoxy-d3)quinazolin-4-amine] it was over 0.3; in that of `C#Cc1cccc(Nc2ncnc3cc(OC)c(O[C@@H]4CCN(C5COC5)CC4(F)F)cc23)c1F` [Compound 12, (R)-6-((3,3-difluoro-1-(oxetan-3-yl)piperidin-4-yl)oxy)-N-(3-ethynyl-2-fluorophenyl)-7-methoxyquinazolin-4-amine], over 0.3; in that of `C#Cc1cccc(Nc2ncnc3cc(OC)c(O[C@H]4CCN(C5COC5)CC4(F)F)cc23)c1F` [Compound 14, (S)-6-((3,3-difluoro-1-(oxetan-3-yl)piperidin-4-yl)oxy)-N-(3-ethynyl-2-fluorophenyl)-7-methoxyquinazolin-4-amine], over 0.3.
On the same count and under the same terms, in the case of `[2H]C([2H])([2H])Oc1cc2ncnc(Nc3cccc(C#C)c3F)c2cc1O[C@@H]1CCN(C2COC2)CC1(F)F` [Compound 16, (R)-6-((3,3-difluoro-1-(oxetan-3-yl)piperidin-4-yl)oxy)-N-(3-ethynyl-2-fluorophenyl)-7-(methoxy-d3)quinazolin-4-amine] it was over 0.3; in that of `[2H]C([2H])([2H])Oc1cc2ncnc(Nc3cccc(C#C)c3F)c2cc1O[C@H]1CCN(C2COC2)CC1(F)F` [Compound 18, (S)-6-((3,3-difluoro-1-(oxetan-3-yl)piperidin-4-yl)oxy)-N-(3-ethynyl-2-fluorophenyl)-7-(methoxy-d3)quinazolin-4-amine], over 0.3; in that of `C#Cc1c(F)ccc(Nc2ncnc3cc(OC)c(O[C@@H]4CCN(C)CC4(F)F)cc23)c1F` [Compound 19, (R)-6-((3,3-difluoro-1-methylpiperidin-4-yl)oxy)-N-(3-ethynyl-2,4-difluorophenyl)-7-methoxyquinazolin-4-amine], over 0.3.
For the compound `C#Cc1cccc(Nc2ncnc3cc(OC)c(O[C@@H]4CCN(C)CC4(F)F)cc23)c1F` [Compound 20, (R)-6-((3,3-difluoro-1-methylpiperidin-4-yl)oxy)-N-(3-ethynyl-2-fluorophenyl)-7-methoxyquinazolin-4-amine], the Kp at 4 h in data set [1] was over 0.3.
Turning to `C#Cc1c(F)ccc(Nc2ncnc3cc(OC)c(O[C@H]4CCN(C)CC4(F)F)cc23)c1F` [Compound 21, (S)-6-((3,3-difluoro-1-methylpiperidin-4-yl)oxy)-N-(3-ethynyl-2,4-difluorophenyl)-7-methoxyquinazolin-4-amine], in data set [1], the Kp at 4 h was over 0.3.
Take `C#Cc1cccc(Nc2ncnc3cc(OC)c(O[C@H]4CCN(C)CC4(F)F)cc23)c1F` [Compound 22, (S)-6-((3,3-difluoro-1-methylpiperidin-4-yl)oxy)-N-(3-ethynyl-2-fluorophenyl)-7-methoxyquinazolin-4-amine]: the Kp at 4 h in data set [1] is over 0.3.
The same measure, in the same setting: in the case of `C#Cc1c(F)ccc(Nc2ncnc3cc(OC)c(O[C@@H]4CCN(C5COC5)CC4(F)F)cc23)c1F` [Compound 24, (R)-6-((3,3-difluoro-1-(oxetan-3-yl)piperidin-4-yl)oxy)-N-(3-ethynyl-2,4-difluorophenyl)-7-methoxyquinazolin-4-amine] it was over 0.3; in that of `C#Cc1c(F)ccc(Nc2ncnc3cc(OC)c(O[C@H]4CCN(C5COC5)CC4(F)F)cc23)c1F` [Compound 26, (S)-6-((3,3-difluoro-1-(oxetan-3-yl)piperidin-4-yl)oxy)-N-(3-ethynyl-2,4-difluorophenyl)-7-methoxyquinazolin-4-amine], over 0.3.
In the case of `[2H]C([2H])([2H])Oc1cc2ncnc(Nc3ccc(F)c(C#C)c3F)c2cc1O[C@@H]1CCN(C2COC2)CC1(F)F` [Compound 28, (R)-6-((3,3-difluoro-1-(oxetan-3-yl)piperidin-4-yl)oxy)-N-(3-ethynyl-2,4-difluorophenyl)-7-(methoxy-d3)quinazolin-4-amine], in data set [1], the Kp at 4 h was over 0.3.
For the compound `[2H]C([2H])([2H])Oc1cc2ncnc(Nc3ccc(F)c(C#C)c3F)c2cc1O[C@H]1CCN(C2COC2)CC1(F)F` [Compound 30, (S)-6-((3,3-difluoro-1-(oxetan-3-yl)piperidin-4-yl)oxy)-N-(3-ethynyl-2,4-difluorophenyl)-7-(methoxy-d3)quinazolin-4-amine], the Kp at 4 h in data set [1] was over 0.3.
